Results published in patent US8278289B2, “Boroxine composition for removal of skin changes” (priority 2006, dated 2012).

Experiments:
mouse fibro-sarcoma FsaR = experiment: Cytotoxic effect on mouse fibro-sarcoma FsaR (crystal violet viability); format: cell-based; details: viable cells by absorbance at 590 nm after 24 hours with substance; XS100 = dosage 0.5 μg; variation max 10%
Experimental: (§1) An investigation of anti-tumor activity of the boroxine compound (XS) was conducted on cell lines of mouse fibro-sarcoma FsaR and mouse carcinoma SCC VII.
(§2) Cell lines (mouse fibro-sarcoma FsaR and mouse carcinoma SCC VII) were incubated at optimal conditions for 24 hours, followed by addition of tested substances in a dosage of 0.5 μg (XS100) and combinations with Li (lithium) and SNP (sodium-nitroprusside) Li (lithium) is blocker of GSK-3 (glycogen-synthetase-kinase), an enzyme involved in pathways that modulate cell's death. SNP (sodium-nitroprusside) is modulator of pro-apoptotic protein p53 (tumor suppressor protein).
(§3) Cells were additionally incubated for 24 hours in the presence of the substances. Later, cells were fixed by glutaraldehyde and stained in 0.1% crystal violet. Stain attached to the viable cells was extracted by 0.2% Triton-X 100 and extract absorbance was determined at 590 nm. Value of absorbance is proportional with viable cells number.
(§4) The following results have been obtained (the observed variation of the observed values are a maximum of 10%).

[1] = tested on: mouse carcinoma cells SCC VII; experiment: Cytotoxic effect on mouse carcinoma cells SCC VII (crystal violet viability); format: cell-based; details: viable cells by absorbance at 590 nm after 24 hours with substance; XS100 = dosage 0.5 μg; variation max 10%
Experimental: as §1, §2, §3, §4

## K2[B3O3F4OH] [XS100]
Mouse fibro-sarcoma FsaR
  % of control: 21 % of control
[1]
  % of control: 42 % of control
